Assay results: patent EP1561465A2, “Methods of use of fluoroquinolone compounds against bacteria” (LG Life Sciences, Ltd., priority 1999, dated 2001)
Values after ≈ are worked out from the molar mass of the structure shown. Read-outs that look alike come from different tables or passages of the source.

Assays:
Shigella spp. = test: MIC by agar dilution (NCCLS M7-A4), 288 enteropathogenic isolates, gemifloxacin and 15 other antimicrobials; type: cell-based; conditions: Shigella spp. N= 21
Procedure, shortened: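 Agar dilution with ~10^4 cfu/spot inoculum; plates incubated aerobically at 35 °C for 24 h, except C. jejuni, held microaerophilically for 48 h. MIC taken as lowest antibiotic concentration with no visible growth.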

Yersinia enterocolitica = test: as above; type: cell-based; conditions: for MIC: Yersinia enterocolitica
Salmonella spp. = test: as above; type: cell-based; conditions: for MIC: Salmonella
Aeromonas spp. = test: as above; type: cell-based; conditions: for MIC: Aeromonas
Hafnia alvei = test: as above; type: cell-based; conditions: for MIC: Hafnia alvei
Campylobacter jejuni [1] = test: as above; conditions: Campylobacter jejuni
Campylobacter jejuni [2] = conditions: Campylobacter jejuni N= 91

CO/N=C1\CN(c2nc3c(cc2F)c(=O)c(C(=O)O)cn3C2CC2)CC1CN (racemic) [Gemifloxacin (SB 265805)]
% Susceptible (Shigella spp.): 100%
MIC (mg/L) Range (Shigella spp.): ≤0.015 mg/L
MIC (Shigella spp.; read-out: MIC (mg/L) 50%): ≤ 0.015 mg/L
MIC (Shigella spp.; read-out: MIC (mg/L) 90%): ≤ 0.015 mg/L
% Susceptible (Yersinia enterocolitica; Yersinia enterocolitica N= 22): 100%
MIC (mg/L) Range (Yersinia enterocolitica; Yersinia enterocolitica N= 22): ≤0.015 to 0.12 mg/L
MIC (Yersinia enterocolitica; read-out: MIC (mg/L) 50%): 0.03 mg/L (≈ 0.077 µM)
MIC (Yersinia enterocolitica; read-out: MIC (mg/L) 90%): 0.03 mg/L (≈ 0.077 µM)
% Susceptible (Salmonella spp.; Salmonella spp. N= 106): 100%
MIC (mg/L) Range (Salmonella spp.; Salmonella spp. N= 106): ≤0.015 to 0.25 mg/L
MIC (Salmonella spp.; read-out: MIC (mg/L) 50%, Salmonella spp. N= 106): 0.03 mg/L (≈ 0.077 µM)
MIC (Salmonella spp.; read-out: MIC (mg/L) 90%, Salmonella spp. N= 106): 0.12 mg/L (≈ 0.308 µM)
% Susceptible (Aeromonas spp.; Aeromonas spp. N= 16): 100%
MIC (Aeromonas spp.; read-out: MIC (mg/L) 50%): ≤ 0.015 mg/L
MIC (Aeromonas spp.; read-out: MIC (mg/L) 90%): 0.03 mg/L (≈ 0.077 µM)
% Susceptible (Hafnia alvei; Hafnia alvei N= 32): 100%
MIC (Hafnia alvei; read-out: MIC (mg/L) 50%): 0.03 mg/L (≈ 0.077 µM)
MIC (Hafnia alvei; read-out: MIC (mg/L) 90%): 0.03 mg/L (≈ 0.077 µM)
MIC (Campylobacter jejuni [1]; read-out: MIC (mg/L) 50%): 32 mg/L (≈ 82.2 µM)
MIC (Campylobacter jejuni [1]; read-out: MIC (mg/L) 90%): 128 mg/L (≈ 329 µM)
% Susceptible (Campylobacter jejuni [2]): 32%
MIC (mg/L) Range (Campylobacter jejuni [2]): 0.03 to 128 mg/L
